Measured values reported in the supplement of paper PMC10733146.

How the values were obtained:
Assay in all cases: viability relative to DMSO control (fraction); higher = less drug effect (more viable cells)
Conditions in all cases: 48 h
[1] = tested on: primary AML patient cells (S002)
How it was run: (§1)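 Compounds were pre-plated at five concentrations, one well each, in 384-well plates, and primary mononuclear tumour cells were plated on them at 4 × 10^4 cells per well. The cells, fresh or cryopreserved, had been Ficoll-isolated from blood or bone marrow or taken from processed lymph node. After 48 h at 37 °C and 5% CO2 in RPMI-1640 with penicillin/streptomycin, L-glutamine and human serum, viability was read as CellTiter-Glo luminescence relative to the median of 16 inner DMSO wells.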

[2] = tested on: primary AML patient cells (S009)
How it was run: as §1

[3] = tested on: primary AML patient cells (S011)
How it was run: as §1

[4] = tested on: primary AML patient cells (S012)
How it was run: as §1

[5] = tested on: primary AML patient cells (S017)
How it was run: as §1

[6] = tested on: primary AML patient cells (S019)
How it was run: as §1

[7] = tested on: primary AML patient cells (S021)
How it was run: as §1

[8] = tested on: primary AML patient cells (S025)
How it was run: as §1

[9] = tested on: primary AML patient cells (S037)
How it was run: as §1

[10] = tested on: primary AML patient cells (S081)
How it was run: as §1

[11] = tested on: primary AML patient cells (S085)
How it was run: as §1

[12] = tested on: primary AML patient cells (S091)
How it was run: as §1

[13] = tested on: primary B-PLL patient cells (S016)
How it was run: as §1

[14] = tested on: primary BL patient cells (S005)
How it was run: as §1

[15] = tested on: primary FL patient cells (S022)
How it was run: as §1

[16] = tested on: primary FL patient cells (S087)
How it was run: as §1

[17] = tested on: primary MCL patient cells (S041)
How it was run: as §1

[18] = tested on: primary MCL patient cells (S053)
How it was run: as §1

[19] = tested on: primary MCL patient cells (S068)
How it was run: as §1

[20] = tested on: primary T-PLL patient cells (S008)
How it was run: as §1

## CCN1CCN(Cc2ccc(Nc3ncc(F)c(-c4cc(F)c5nc(C)n(C(C)C)c5c4)n3)nc2)CC1
[1]; 0.024 µM
  viability: 0.84
[1]; 0.12 µM
  viability: 0.894
[1]; 0.6 µM
  viability: 0.884
[1]; 3 µM
  viability: 0.363
[1]; 15 µM
  viability: 0.139
[2]; 0.024 µM
  viability: 1.05
[2]; 0.12 µM
  viability: 0.955
[2]; 0.6 µM
  viability: 1.03
[2]; 3 µM
  viability: 0.451
[2]; 15 µM
  viability: 0.0338
[3]; 0.024 µM
  viability: 1.74
[3]; 0.12 µM
  viability: 1.08
[3]; 0.6 µM
  viability: 1.09
[3]; 3 µM
  viability: 0.0537
[3]; 15 µM
  viability: 0.01
[4]; 0.024 µM
  viability: 1.11
[4]; 0.12 µM
  viability: 1.04
[4]; 0.6 µM
  viability: 1.07
[4]; 3 µM
  viability: 0.986
[4]; 15 µM
  viability: 0.902
[5]; 0.024 µM
  viability: 1.01
[5]; 0.12 µM
  viability: 1.14
[5]; 0.6 µM
  viability: 1.1
[5]; 3 µM
  viability: 0.73
[5]; 15 µM
  viability: 0.179
[6]; 0.024 µM
  viability: 1.18
[6]; 0.12 µM
  viability: 0.939
[6]; 0.6 µM
  viability: 1.13
[6]; 3 µM
  viability: 0.232
[6]; 15 µM
  viability: 0.0632
[7]; 0.024 µM
  viability: 1.01
[7]; 0.12 µM
  viability: 0.962
[7]; 0.6 µM
  viability: 1.22
[7]; 3 µM
  viability: 0.377
[7]; 15 µM
  viability: 0.0751
[8]; 0.024 µM
  viability: 1.11
[8]; 0.12 µM
  viability: 1.02
[8]; 0.6 µM
  viability: 1.1
[8]; 3 µM
  viability: 0.372
[8]; 15 µM
  viability: 0.0187
[9]; 0.024 µM
  viability: 0.952
[9]; 0.12 µM
  viability: 0.926
[9]; 0.6 µM
  viability: 1.03
[9]; 3 µM
  viability: 0.71
[9]; 15 µM
  viability: 0.255
[10]; 0.024 µM
  viability: 0.929
[10]; 0.12 µM
  viability: 0.868
[10]; 0.6 µM
  viability: 0.833
[10]; 3 µM
  viability: 0.537
[10]; 15 µM
  viability: 0.174
[11]; 0.024 µM
  viability: 0.895
[11]; 0.12 µM
  viability: 1.01
[11]; 0.6 µM
  viability: 1.22
[11]; 3 µM
  viability: 0.265
[11]; 15 µM
  viability: 0.0115
[12]; 0.024 µM
  viability: 0.77
[12]; 0.12 µM
  viability: 0.939
[12]; 0.6 µM
  viability: 0.849
[12]; 3 µM
  viability: 0.569
[12]; 15 µM
  viability: 0.333
[13]; 0.024 µM
  viability: 0.997
[13]; 0.12 µM
  viability: 1.09
[13]; 0.6 µM
  viability: 0.984
[13]; 3 µM
  viability: 0.505
[13]; 15 µM
  viability: 0.0112
[14]; 0.024 µM
  viability: 1.01
[14]; 0.12 µM
  viability: 1.61
[14]; 0.6 µM
  viability: 0.924
[14]; 3 µM
  viability: 0.725
[14]; 15 µM
  viability: 0.374
[15]; 0.024 µM
  viability: 1.12
[15]; 0.12 µM
  viability: 1.01
[15]; 0.6 µM
  viability: 1.06
[15]; 3 µM
  viability: 0.616
[15]; 15 µM
  viability: 0.00982
[16]; 0.024 µM
  viability: 1.01
[16]; 0.12 µM
  viability: 0.934
[16]; 0.6 µM
  viability: 0.962
[16]; 3 µM
  viability: 0.763
[16]; 15 µM
  viability: 0.0109
[17]; 0.024 µM
  viability: 0.938
[17]; 0.12 µM
  viability: 0.812
[17]; 0.6 µM
  viability: 0.757
[17]; 3 µM
  viability: 0.0785
[17]; 15 µM
  viability: 0.00539
[18]; 0.024 µM
  viability: 0.896
[18]; 0.12 µM
  viability: 0.737
[18]; 0.6 µM
  viability: 0.565
[18]; 3 µM
  viability: 0.144
[18]; 15 µM
  viability: 0.0105
[19]; 0.024 µM
  viability: 0.836
[19]; 0.12 µM
  viability: 0.934
[19]; 0.6 µM
  viability: 1.09
[19]; 3 µM
  viability: 0.0754
[19]; 15 µM
  viability: 0.0119
[20]; 0.024 µM
  viability: 1.04
[20]; 0.12 µM
  viability: 0.981
[20]; 0.6 µM
  viability: 1.08
[20]; 3 µM
  viability: 0.415
[20]; 15 µM
  viability: 0.0352

## N#Cc1ccnc(N2C(=O)CC[C@H]2C(=O)N(c2cncc(F)c2)[C@H](C(=O)NC2CC(F)(F)C2)c2ccccc2Cl)c1 [AG-120]
[1]; 0.024 µM
  viability: 0.901
[1]; 0.12 µM
  viability: 0.897
[1]; 0.6 µM
  viability: 0.849
[1]; 3 µM
  viability: 0.951
[1]; 15 µM
  viability: 0.766
[2]; 0.024 µM
  viability: 0.974
[2]; 0.12 µM
  viability: 0.96
[2]; 0.6 µM
  viability: 1.04
[2]; 3 µM
  viability: 0.943
[2]; 15 µM
  viability: 0.915
[3]; 0.024 µM
  viability: 1.76
[3]; 0.12 µM
  viability: 0.843
[3]; 0.6 µM
  viability: 0.852
[3]; 3 µM
  viability: 0.785
[3]; 15 µM
  viability: 0.657
[4]; 0.024 µM
  viability: 1.03
[4]; 0.12 µM
  viability: 1.06
[4]; 0.6 µM
  viability: 1.04
[4]; 3 µM
  viability: 0.987
[4]; 15 µM
  viability: 0.985
[5]; 0.024 µM
  viability: 1.04
[5]; 0.12 µM
  viability: 0.988
[5]; 0.6 µM
  viability: 1.16
[5]; 3 µM
  viability: 1.02
[5]; 15 µM
  viability: 0.908
[6]; 0.024 µM
  viability: 1.43
[6]; 0.12 µM
  viability: 1.43
[6]; 0.6 µM
  viability: 0.934
[6]; 3 µM
  viability: 1.34
[6]; 15 µM
  viability: 0.833
[7]; 0.024 µM
  viability: 0.985
[7]; 0.12 µM
  viability: 0.875
[7]; 0.6 µM
  viability: 0.743
[7]; 3 µM
  viability: 0.761
[7]; 15 µM
  viability: 0.692
[8]; 0.024 µM
  viability: 1.04
[8]; 0.12 µM
  viability: 1.06
[8]; 0.6 µM
  viability: 0.85
[8]; 3 µM
  viability: 0.934
[8]; 15 µM
  viability: 0.826
[9]; 0.024 µM
  viability: 1.04
[9]; 0.12 µM
  viability: 1.04
[9]; 0.6 µM
  viability: 0.952
[9]; 3 µM
  viability: 1.01
[9]; 15 µM
  viability: 0.888
[10]; 0.024 µM
  viability: 0.994
[10]; 0.12 µM
  viability: 1.01
[10]; 0.6 µM
  viability: 0.925
[10]; 3 µM
  viability: 1.11
[10]; 15 µM
  viability: 0.968
[11]; 0.024 µM
  viability: 1.07
[11]; 0.12 µM
  viability: 1
[11]; 0.6 µM
  viability: 0.959
[11]; 3 µM
  viability: 1.03
[11]; 15 µM
  viability: 0.886
[12]; 0.024 µM
  viability: 1.02
[12]; 0.12 µM
  viability: 0.975
[12]; 0.6 µM
  viability: 1.03
[12]; 3 µM
  viability: 1.56
[12]; 15 µM
  viability: 1.03
[13]; 0.024 µM
  viability: 1.16
[13]; 0.12 µM
  viability: 1.18
[13]; 0.6 µM
  viability: 1
[13]; 3 µM
  viability: 1.12
[13]; 15 µM
  viability: 0.86
[14]; 0.024 µM
  viability: 0.99
[14]; 0.12 µM
  viability: 1.02
[14]; 0.6 µM
  viability: 1.43
[14]; 3 µM
  viability: 1.01
[14]; 15 µM
  viability: 1.31
[15]; 0.024 µM
  viability: 0.858
[15]; 0.12 µM
  viability: 0.833
[15]; 0.6 µM
  viability: 0.838
[15]; 3 µM
  viability: 0.905
[15]; 15 µM
  viability: 0.777
[16]; 0.024 µM
  viability: 0.946
[16]; 0.12 µM
  viability: 0.984
[16]; 0.6 µM
  viability: 0.911
[16]; 3 µM
  viability: 1.01
[16]; 15 µM
  viability: 0.892
[17]; 0.024 µM
  viability: 0.99
[17]; 0.12 µM
  viability: 1.01
[17]; 0.6 µM
  viability: 0.928
[17]; 3 µM
  viability: 1
[17]; 15 µM
  viability: 0.886
[18]; 0.024 µM
  viability: 0.945
[18]; 0.12 µM
  viability: 0.911
[18]; 0.6 µM
  viability: 0.593
[18]; 3 µM
  viability: 0.887
[18]; 15 µM
  viability: 0.641
[19]; 0.024 µM
  viability: 0.995
[19]; 0.12 µM
  viability: 1.02
[19]; 0.6 µM
  viability: 0.898
[19]; 3 µM
  viability: 1.05
[19]; 15 µM
  viability: 1.18
[20]; 0.024 µM
  viability: 1.04
[20]; 0.12 µM
  viability: 1.09
[20]; 0.6 µM
  viability: 1.03
[20]; 3 µM
  viability: 1.04
[20]; 15 µM
  viability: 1.02
